Here are results for eleven molecules from patent US12030884B2, “Pyrazoloquinoline KRAS inhibitors” (INCYTE CORPORATION, priority 2021, dated 2024).

The nature of data set [1]: Human whole blood stability. The format is in vitro ADME. Particulars: percent remaining, 1 μM, 37° C. The procedure:
The whole blood stability of the exemplified compounds was determined by LC-MS/MS. The 96-Well Flexi-Tier™ Block (Analytical Sales & Services, Inc, Flanders, NJ) was used for the incubation plate containing 1.0 mL glass vials with 0.5 mL of blood per vial (pooled gender, human whole blood sourced from BIOIVT, Hicksville, NY or similar). Blood was pre-warmed in water bath to 37° C. for 30 minutes. 96-deep well analysis plate was prepared with the addition of 100 μL ultrapure water/well. 50 μL chilled ultrapure water/well was added to 96-deep well sample collection plate and covered with a sealing mat. 1 μL of 0.5 mM compound working solution (DMSO:water) was added to the blood in incubation plate to reach final concentrations of 1 μM, mixed by pipetting thoroughly and 50 μL was transferred 50 into the T=0 wells of the sample collection plate. Blood was allowed to sit in the water for 2 minutes and then 400 μL stop solution/well was added (acetonitrile containing an internal standard). The incubation plate was placed in the Incu-Shaker CO2 Mini incubator (Benchmark Scientific, Sayreville, NJ) at 37° C. with shaking at 150 rpm. At 1, 2 and 4-hr, the blood samples were mixed thoroughly by pipetting and 50 μL is transferred into the corresponding wells of the sample collection plate. Blood was allowed to sit in the water for 2 minutes and then 400 μL of stop solution/well was added. The collection plate was sealed and vortexed at 1700 rpm for 3 minutes (VX-2500 Multi-Tube Vortexer, VWR International, Radnor, PA), and samples were then centrifuged in the collection plate at 3500 rpm for 10 minutes (Allegra X-14R Centrifuge Beckman Coulter, Indianapolis, IN). 100 μL of supernatant/well was transferred from the sample collection plate into the corresponding wells of the analysis plate. The final plate was vortexed at 1700 rpm for 1 minute and analyze samples by LC-MS/MS. The peak area ratio of the 1, 2, and 4 hr samples relative to T=0 was used to determine the percent remaining. The natural log of the percent remaining versus time was used determine a slope to calculate the compounds half-life in blood (t1/2=0.693/slope).

Data set [2] concerns pERK in KRAS G12C cells (MIA PaCa-2, NCI-H358). As to the kind of experiment: Cellular pERK HTRF assay (KRAS_G12C pERK assay). To be noted: 4 hours incubation, read-out: G12C_pERK. In kind it is cell-based. The procedure: MIA PaCa-2 (KRAS G12C; ATCC® CRL-1420), NCI-H358 (KRAS G12C; ATCC® CRL-5807), A427 (KRAS G12D; ATCC® HTB53), HPAFII (KRAS G12D; ATCC® CRL-1997), YAPC (KRAS G12V; DSMZ ACC382), SW480 (KRAS G12V; ATCC® CRL-228) and NCI-H838 (KRAS WT; ATCC® CRL-5844) cells are purchased from ATCC and maintained in RPMI 1640 media supplemented with 10% FBS (Gibco/Life Technologies). The cells are plated at 5000 cells per well (8 uL) into Greiner 384-well low volume, flat-bottom, and tissue culture treated white plates and incubated overnight at […], 5% CO2. The next morning, test compound stock solutions are diluted in media at 3× the final concentration and 4 uL are added to the cells, with a final concentration of 0.1% of DMSO. The cells are incubated with the test compounds for 4 hours (G12C and G12V) or 2 hrs (G12D) at 37° C., 5% CO2. Four uL of 4×lysis buffer with blocking reagent (Cisbio) are added to each well and plates are rotated gently (300 rpm) for 30 minutes at room temperature. Four uL per well of Cisbio anti Phospho-ERK 1/2 d2 is mixed with anti Phospho-ERK 1/2 Cryptate (1:1), and added to each well, incubated overnight in the dark at room temperature. Plates are read on the Pherastar plate reader at 665 nm and 620 nm wavelengths. Data are analyzed in Genedata Screener using SmartFit for IC50 values.

A further data set has as its target KRAS G12C (Homo sapiens, UniProt P01116, G12C). The data set can be described thus: GDP-GTP exchange assay (KRAS_G12C exchange assay). In kind it is biochemical. Particulars: bodipy-loaded KRAS G12C, SOS1, GppNHp; 2 hours pre-incubation with inhibitor; read-out: G12C_exchange. The method, then:
The inhibitor potency of the exemplified compounds was determined in a fluorescence based guanine nucleotide exchange assay, which measures the exchange of bodipy-GDP (fluorescently labeled GDP) for GppNHp (Non-hydrolyzable GTP analog) to generate the active state of KRAS in the presence of SOS1 (guanine nucleotide exchange factor). Inhibitors were serially diluted in DMSO and a volume of 0.1 μL was transferred to the wells of a black low volume 384-well plate. 5 μL/well volume of bodipy-loaded KRAS G12C diluted to 5 nM in assay buffer (25 mM Hepes pH 7.5, 50 mM NaCl, 10 mM MgCl2 and 0.01% Brij-35) was added to the plate and pre-incubated with inhibitor for 2 hours at ambient temperature. Appropriate controls (enzyme with no inhibitor or with a G12C inhibitor (AMG-510)) were included on the plate. The exchange was initiated by the addition of a 5 μL/well volume containing 1 mM GppNHp and 300 nM SOS1 in assay buffer. The 10 μL/well reaction concentration of the bodipy-loaded KRAS G12C, GppNHp, and SOS1 were 2.5 nM, 500 uM, and 150 nM, respectively. The reaction plates were incubated at ambient temperature for 2 hours, a time estimated for complete GDP-GTP exchange in the absence of inhibitor. For the KRAS G12D and G12V mutants, similar guanine nucleotide exchange assays were used with 2.5 nM as final concentration for the bodipy loaded KRAS proteins and with 4 hours and 3 hours incubation after adding GppNHp-SOS1 mixture for G12D and G12V respectively. A cyclic peptide described to selectively bind G12D mutant (Sakamoto et al., BBRC 484.3 (2017), 605-611) or internal compounds with confirmed binding were used as positive controls in the assay plates. Fluorescence intensities were measured on a PheraStar plate reader instrument (BMG Labtech) with excitation at 485 nm and emission at 520 nm.
Either GraphPad prism or Genedata Screener SmartFit was used to analyze the data. The IC50 values were derived by fitting the data to a four parameter logistic equation producing a sigmoidal dose-response curve with a variable Hill coefficient.

The subject of data set [3] is pERK1/2 in MIA PaCa-2 cells (KRAS G12C). The data set can be described thus: Whole blood pERK1/2 HTRF assay (KRAS_G12C WB pERK assay). In kind it is cell-based. To be noted: Homo sapiens, compound in whole blood, 4 hours, read-out: G12C_WB_pERK. The method, then:
MIA PaCa-2 cells (KRAS G12C; ATCC® CRL-1420), HPAF-II (KRAS G12D; ATCC® CRL-1997) and YAPC (KRAS G12V; DSMZ ACC382) are maintained in RPMI 1640 with 10% FBS (Gibco/Life Technologies). For MIA PaCa-2 assay, cells are seeded into 96 well tissue culture plates (Corning #3596) at 25000 cells per well in 100 uL media and cultured for 2 days at 37° C., 5% CO2 before the assay. For HPAF-II and YAPC assay, cells are seeded in 96 well tissue culture plates at 50000 cells per well in 100 uL media and cultured for 1 day before the assay. Whole Blood are added to the 1 uL dots of compounds (prepared in DMSO) in 96 well plates and mixed gently by pipetting up and down so that the concentration of the compound in blood is 1× of desired concentration, in 0.5% DMSO. The media is aspirated from the cells and 50 uL per well of whole blood with test compound is added and incubated for 4 hours for MIA PaCa and YAPC assay; or 2 hours for HPAF-II assay, respectively at 37° C., 5% CO2. After dumping the blood, the plates are gently washed twice by adding PBS to the side of the wells and dumping the PBS from the plate onto a paper towel, tapping the plate to drain well. Fifty ul/well of 1×lysis buffer #1 (Cisbio) with blocking reagent (Cisbio) and Benzonase nuclease (Sigma Cat #E1014-5KU, 1: 10000 final concentration) is then added and incubated at room temperature for 30 minutes with shaking (250 rpm). Following lysis, 16 uL of lysate is transferred into 384-well Greiner small volume white plate using an Assist Plus (Integra Biosciences, NH). Four uL of 1:1 mixture of anti Phospho-ERK 1/2 d2 and anti Phospho-ERK 1/2 Cryptate (Cisbio) is added to the wells using the Assist Plus and incubated at room temperature overnight in the dark. Plates are read on the Pherastar plate reader at 665 nm and 620 nm wavelengths. Data are analyzed in Genedata Screener using SmartFit for IC50 values.
For orientation: TR-FRET usually uses a lanthanide donor and a delayed reading to cut background.

Sequence of KRAS G12C (P01116 1-188 isoform P01116-2 G12C): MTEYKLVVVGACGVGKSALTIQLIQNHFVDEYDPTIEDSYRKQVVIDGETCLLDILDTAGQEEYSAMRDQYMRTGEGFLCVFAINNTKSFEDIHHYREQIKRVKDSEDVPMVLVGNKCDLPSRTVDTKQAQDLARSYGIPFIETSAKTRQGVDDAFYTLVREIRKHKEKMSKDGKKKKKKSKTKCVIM

As to `CC#CC(=O)N1CC[C@H](n2ncc3c(O[C@@H](C)[C@@H]4CCCN4C)nc4c(F)c(-c5nccc6cccc(C#N)c56)c(Cl)cc4c32)C[C@H]1CC#N` (single isomer, unassigned) [Example 1a], the “Human whole blood stability at 4 hr” value in data set [1] was “††† (WBS >90%)”. In addition, the IC50 (in data set [2]; on KRAS G12C; in data set [3]) was at most 100 nM throughout.
Take `CC#CC(=O)N1CC[C@H](n2ncc3c(O[C@@H](C)[C@@H]4CCCN4C)nc4c(F)c(-c5nccc6cccc(C#N)c56)c(Cl)cc4c32)C[C@H]1CC#N` (single isomer, unassigned) [Example 1b]: the IC50 on KRAS G12C was at most 100 nM.
Take `C=C(F)C(=O)N1CC[C@H](n2ncc3c(O[C@@H](C)[C@@H]4CCCN4C)nc4c(F)c(-c5nccc6cccc(C#N)c56)c(Cl)cc4c32)C[C@H]1CC#N` (single isomer, unassigned) [Example 3a]: the “Human whole blood stability at 4 hr” value in data set [1] is reported as “††† (WBS >90%)”. The IC50 (in data set [2]; at KRAS G12C; in data set [3]) was at most 100 nM throughout.
For the molecule `C=C(F)C(=O)N1CC[C@H](n2ncc3c(O[C@@H](C)[C@@H]4CCCN4C)nc4c(F)c(-c5nccc6cccc(C#N)c56)c(Cl)cc4c32)C[C@H]1CC#N` (single isomer, unassigned) [Example 3b], on KRAS G12C, the IC50 was 100 to 1000 nM.
Regarding `C=C(F)C(=O)N1CC[C@H](n2ncc3c(N4CC(N(C)CC)C4)nc4c(F)c(-c5c(C)c(C)cc6[nH]ncc56)c(Cl)cc4c32)C[C@H]1CC#N` (single isomer, unassigned) [Example 4a], the “Human whole blood stability at 4 hr” value in data set [1] is “†† (WBS >70% but ≤90%)”. In addition, the IC50 (in data set [2]; at KRAS G12C; in data set [3]) was at most 100 nM each time.
Take `C=C(F)C(=O)N1CC[C@H](n2ncc3c(N4CC(N(C)CC)C4)nc4c(F)c(-c5c(C)c(C)cc6[nH]ncc56)c(Cl)cc4c32)C[C@H]1CC#N` (single isomer, unassigned) [Example 4b]: on KRAS G12C, the IC50 was 1000 to 5000 nM.
The same measure, in the same setting: to `C=C(F)C(=O)N1CC[C@H](n2ncc3c(O[C@@H](C)[C@@H]4CCCN4C)nc4c(F)c(-c5cccc6cccc(C#N)c56)c(Cl)cc4c32)C[C@H]1CC#N` (single isomer, unassigned) [Example 5a] belongs 100 to 1000 nM.
`C=C(F)C(=O)N1CC[C@H](n2ncc3c(O[C@@H](C)[C@@H]4CCCN4C)nc4c(F)c(-c5cccc6cccc(C#N)c56)c(Cl)cc4c32)C[C@H]1CC#N` (single isomer, unassigned) [Example 5b]: the IC50 (in data set [2]; at KRAS G12C; in data set [3]) was at most 100 nM throughout.
Turning to `CC#CC(=O)N1CC[C@H](n2ncc3c(O[C@@H](C)[C@@H]4CCCN4C)nc4c(F)c(-c5cccc6cccc(C#N)c56)c(C)cc4c32)C[C@H]1CC#N` (single isomer, unassigned) [Example 7], in data set [1], the “Human whole blood stability at 4 hr” value is given as “†† (WBS >70% but ≤90%)”. Besides, the IC50 (in data set [2]; at KRAS G12C; in data set [3]) was at most 100 nM each time.
In the case of `COC/C=C/C(=O)N1CC[C@H](n2ncc3c(O[C@@H](C)[C@@H]4CCCN4C)nc4c(F)c(-c5cccc6cccc(C#N)c56)c(Cl)cc4c32)C[C@H]1CC#N` [Example 6a, 8-(8-chloro-1-((2S,4S)-2-(cyanomethyl)-1-((E)-4-methoxybut-2-enoyl)piperidin-4-yl)-6-fluoro-4-((S)-1-((S)-1-methylpyrrolidin-2-yl)ethoxy)-1H-pyrazolo[4,3-c]quinolin-7-yl)-1-naphthonitrile], the IC50 at KRAS G12C is at most 100 nM.
For the molecule `COC/C=C/C(=O)N1CC[C@H](n2ncc3c(O[C@@H](C)[C@@H]4CCCN4C)nc4c(F)c(-c5cccc6cccc(C#N)c56)c(Cl)cc4c32)C[C@H]1CC#N` [Example 6b, 8-(8-chloro-1-((2S,4S)-2-(cyanomethyl)-1-((E)-4-methoxybut-2-enoyl)piperidin-4-yl)-6-fluoro-4-((S)-1-((S)-1-methylpyrrolidin-2-yl)ethoxy)-1H-pyrazolo[4,3-c]quinolin-7-yl)-1-naphthonitrile], the “Human whole blood stability at 4 hr” value in data set [1] is listed as “††† (WBS >90%)”. Besides, the IC50 in data set [2] and in data set [3] was at most 100 nM throughout.
